The values below come from ChEMBL document CHEMBL4020822, “Identification of N-{cis-3-[Methyl(7H-pyrrolo[2,3-d]pyrimidin-4-yl)amino]cyclobutyl}propane-1-sulfonamide (PF-04965842): A Selective JAK1 Clinical Candidate for the Treatment of Autoimmune Diseases” (J Med Chem, 2018).

The nature of data set [1]: physchem. The conditions noted are these: octanol/water phosphate buffer, pH 7.4.
Data set [2] in a line: Aqueous solubility of the compound at pH 7.4. In kind it is physicochemical.
Data set [3] is described as follows: Apparent permeability in RRCK cells from apical to basolateral side. In kind it is ADME, cell-based, Canis lupus familiaris, MDCKII-LE. The conditions noted are these: dog, MDCK.
Data set [4] is described as follows: Volume of distribution at steady state in rat at 1 mg/kg, iv or 3 mg/kg, po. It counts as ADME, organism-based. Conditions: in vivo, read-out: Vdss.
Data set [5] can be described thus: Oral bioavailability in rat at 3 mg/kg. It counts as ADME, organism-based. Conditions: in vivo.
Data set [6] in a line: Tmax in freund's adjuvant-induced Lewis rat arthritis model blood at 15 mg/kg, po qd administered via oral gavage measured on day 7. It counts as ADME, organism-based.

In brackets after ≈: the same amount, converted by molar mass.

With `CN(c1ncnc2[nH]ccc12)[C@H]1C[C@@H](NS(=O)(=O)N2CCCCC2)C1`, in data set [1], the logD turned out to be 2.7.

Regarding `CN(c1ncnc2[nH]ccc12)[C@H]1C[C@@H](NS(=O)(=O)NCC2CC2)C1`, the logD in data set [1] was found to be 2.1. Consider `CN(c1ncnc2[nH]ccc12)[C@H]1C[C@@H](CS(=O)(=O)N2CCCC2)C1`, for which, in data set [1], the logD amounted to 2.1. Molecule `CCN(C)S(=O)(=O)N[C@H]1C[C@@H](N(C)c2ncnc3[nH]ccc23)C1` showed a logD in data set [1] of 2.1.

Turning to `CCS(=O)(=O)N[C@H]1C[C@@H](N(C)c2ncnc3[nH]ccc23)C1`, in data set [1], the logD is 1.4. Still for that read-out and setting: the value for `CCCS(=O)(=O)N[C@H]1C[C@H](N(C)c2ncnc3[nH]ccc23)C1` was 2; that for `CN(c1ncnc2[nH]ccc12)[C@H]1C[C@@H](NS(=O)(=O)CCC(F)(F)F)C1` was 2.4. Still for that read-out and setting: in the case of `CN(c1ncnc2[nH]ccc12)[C@H]1C[C@@H](NS(=O)(=O)NC2CC2)C1` it was 1.6. As to `CN(c1ncnc2[nH]ccc12)[C@H]1C[C@@H](NS(=O)(=O)CC2CC2)C1`, the logD in data set [1] amounted to 1.8. As to `CN(c1ncnc2[nH]ccc12)[C@H]1C[C@@H](NS(=O)(=O)CC2COC2)C1`, in data set [2], the concentration in solution (solubility) was 437 µM (≈ 154 µg/mL). Also, the logD in data set [1] came out at 1. For the same molecule, in data set [3], the Papp A→B was found to be 3 ×10⁻⁶ cm/s. Besides, the Vd in data set [4] is 1.99 L/kg. Besides, the bioavailability in data set [5] worked out at 48.3%. In the case of `CN(c1ncnc2[nH]ccc12)[C@H]1C[C@@H](CS(=O)(=O)NCC2CC2)C1`, the log distribution coefficient (logD) in data set [1] came to 2.2. Still for that read-out and setting: in the case of `CCNS(=O)(=O)N[C@H]1C[C@@H](N(C)c2ncnc3[nH]ccc23)C1` it was 1.6; in that of `CN(C1CC1)S(=O)(=O)N[C@H]1C[C@@H](N(C)c2ncnc3[nH]ccc23)C1`, 2.2; in that of `CCCNS(=O)(=O)C[C@H]1C[C@@H](N(C)c2ncnc3[nH]ccc23)C1`, 2.1. In turn, `CN(c1ncnc2[nH]ccc12)[C@H]1C[C@@H](NS(=O)(=O)NCCCC#N)C1` showed a logD in data set [1] of 1.2. The same measure, in the same setting: in the case of `CCNS(=O)(=O)C[C@H]1C[C@@H](N(C)c2ncnc3[nH]ccc23)C1` it was 1.5; in that of `N#CC[C@H](C1CCCC1)n1cc(-c2ncnc3[nH]ccc23)cn1` [RUXOLITINIB], 2.7. In data set [2], `CN(c1ncnc2[nH]ccc12)[C@H]1C[C@@H](NS(=O)(=O)CCCC#N)C1` registered a solubility of 259 µM (≈ 90.2 µg/mL). For the same molecule, the Papp A→B in data set [3] came out at 4 ×10⁻⁶ cm/s. In data set [4], the Vd came to 1.42 L/kg. For the same molecule, the bioavailability in data set [5] is 61.1%. Turning to `CN(c1ncnc2[nH]ccc12)[C@H]1C[C@@H](NS(=O)(=O)Cc2ccccc2)C1`, the logD in data set [1] came out at 2.6. With `CN(CCC#N)S(=O)(=O)N[C@H]1C[C@@H](N(C)c2ncnc3[nH]ccc23)C1`, the logD in data set [1] was 1.3.

Consider `CN(CC1CC1)S(=O)(=O)C[C@H]1C[C@@H](N(C)c2ncnc3[nH]ccc23)C1`, for which the logD in data set [1] turned out to be 2.7.

The molecule `CCCCN(C)S(=O)(=O)C[C@H]1C[C@@H](N(C)c2ncnc3[nH]ccc23)C1` came in with a logD in data set [1] of 3. Still for that read-out and setting: in the case of `CN(c1ncnc2[nH]ccc12)[C@H]1C[C@@H](NS(C)(=O)=O)C1` it was 1.2; in that of `CCCCNS(=O)(=O)C[C@H]1C[C@@H](N(C)c2ncnc3[nH]ccc23)C1`, 2.6.

For the molecule `CN(c1ncnc2[nH]ccc12)[C@H]1C[C@@H](CS(=O)(=O)c2ccccc2)C1`, the logD in data set [1] worked out at 2.7. In data set [1], `CN(c1ncnc2[nH]ccc12)[C@H]1C[C@@H](NS(=O)(=O)CC2CCC2)C1` displayed a logD of 2.4. On the same count and under the same terms, in the case of `CN(c1ncnc2[nH]ccc12)[C@H]1C[C@@H](CS(=O)(=O)C2CC2)C1` it was 1.6. On the same count and under the same terms, in the case of `CCS(=O)(=O)C[C@H]1C[C@@H](N(C)c2ncnc3[nH]ccc23)C1` it was 1.2. `C[C@@H]1CCN(C(=O)CC#N)C[C@@H]1N(C)c1ncnc2[nH]ccc12` [TOFACITINIB] showed a logD in data set [1] of 1.1. Same read-out and setting: the value for `CN(c1ncnc2[nH]ccc12)[C@H]1C[C@@H](NS(=O)(=O)c2ccccc2)C1` was 2.8. For `CCCNS(=O)(=O)N[C@H]1C[C@@H](N(C)c2ncnc3[nH]ccc23)C1`, the logD in data set [1] is 2.

On to `CCS(=O)(=O)N1CC(CC#N)(n2cc(-c3ncnc4[nH]ccc34)cn2)C1` [BARICITINIB], for which the logD in data set [1] came out at 1.2. Regarding `CN(c1ncnc2[nH]ccc12)[C@H]1C[C@@H](NS(=O)(=O)CC(F)(F)F)C1`, the logD in data set [1] turned out to be 1.9. Same read-out and setting: in the case of `COCCS(=O)(=O)N[C@H]1C[C@@H](N(C)c2ncnc3[nH]ccc23)C1` it was 1.2. On the same count and under the same terms, in the case of `CCCCS(=O)(=O)N[C@H]1C[C@@H](N(C)c2ncnc3[nH]ccc23)C1` it was 2.4. Same read-out and setting: the value for `CN(c1ncnc2[nH]ccc12)[C@H]1C[C@@H](NS(=O)(=O)c2ccc(F)cc2)C1` was 2.8; that for `CC(C)CS(=O)(=O)N[C@H]1C[C@@H](N(C)c2ncnc3[nH]ccc23)C1` was 2.4. In turn, `CCCS(=O)(=O)N[C@H]1C[C@@H](N(C)c2ncnc3[nH]ccc23)C1` [ABROCITINIB] registered a solubility in data set [2] of 503 µM (≈ 163 µg/mL). In addition, the logD in data set [1] was found to be 1.9. Moreover, in data set [3], the Papp A→B was 16 ×10⁻⁶ cm/s. Also, the Tmax in data set [6] turned out to be 15 min. Besides, in data set [4], the Vd was found to be 1.04 L/kg. Also, the bioavailability in data set [5] turned out to be 95.6%.

On to `CN(c1ncnc2[nH]ccc12)[C@H]1C[C@@H](NS(=O)(=O)CCCC(F)(F)F)C1`, for which the logD in data set [1] turned out to be 2.4. `CCCCS(=O)(=O)C[C@H]1C[C@@H](N(C)c2ncnc3[nH]ccc23)C1` had a solubility in data set [2] of 213 µM (≈ 71.7 µg/mL). In data set [1], the logD came out at 2.2. Also, the Papp A→B in data set [3] is 23 ×10⁻⁶ cm/s. In addition, in data set [4], the Vd is 0.74 L/kg. In addition, in data set [5], the bioavailability came to 119%. Turning to `COCCCS(=O)(=O)N[C@H]1C[C@@H](N(C)c2ncnc3[nH]ccc23)C1`, the logD in data set [1] was found to be 1.5. Still for that read-out and setting: the value for `CN(c1ncnc2[nH]ccc12)[C@H]1C[C@@H](NS(=O)(=O)C2CC2)C1` was 1.6. Molecule `CCCS(=O)(=O)C[C@H]1C[C@@H](N(C)c2ncnc3[nH]ccc23)C1` displayed a logD in data set [1] of 1.7.
